Test results as given in US11713344B2 (DONG-A ST CO., LTD., priority 2017, dated 2023).

Assays:
Human glucagon receptors = Human glucagon receptors (Homo sapiens, UniProt P47871); experiment: Glucagon receptor activation assay (CRE-luciferase reporter, CHO-K1)
Human GLP-1 receptors = Human GLP-1 receptors (Homo sapiens, UniProt P43220); experiment: GLP-1 receptor activation assay (CRE-luciferase reporter, CHO-K1)
Experimental: Then, the resulting increased luciferase activity was evaluated as a measurement of the effect on each receptor activation.
After 3 hours of transfection, medium was exchanged to Alpha Minimal Essential Medium (α-MEM) comprising 10% fetal bovine serum (FBS). Next day, the medium was exchanged to α-MEM comprising the analog of the present invention and 0.1% bovine serum albumin (BSA). After 6 hours, dual luciferase assay reagent was added in the same amount as the medium in which the cells were submerged, and firefly luciferase and Renilla luciferase activities were continuously measured. Firefly luciferase activity values were corrected against Renilla luciferase activity to yield transfection efficiency.

[1] = Body weight loss efficacy by 5-day repeated injection vs Liraglutide and MEDI0382, obese mice (Exp. Ex. 10); type: in vivo, C57BL/6 mouse; settings: 30 nmol/kg s.c. once a day x 4
Experimental: Male laboratory mice (C57BL/6 mouse) were given diet containing high fat. The mice with high-fat-diet-induced obesity were grouped by body weight before beginning the experiment. […] Body weight and food intake was measured once per day, at the same time each day.

Chain of Human glucagon receptors (P47871 26-477): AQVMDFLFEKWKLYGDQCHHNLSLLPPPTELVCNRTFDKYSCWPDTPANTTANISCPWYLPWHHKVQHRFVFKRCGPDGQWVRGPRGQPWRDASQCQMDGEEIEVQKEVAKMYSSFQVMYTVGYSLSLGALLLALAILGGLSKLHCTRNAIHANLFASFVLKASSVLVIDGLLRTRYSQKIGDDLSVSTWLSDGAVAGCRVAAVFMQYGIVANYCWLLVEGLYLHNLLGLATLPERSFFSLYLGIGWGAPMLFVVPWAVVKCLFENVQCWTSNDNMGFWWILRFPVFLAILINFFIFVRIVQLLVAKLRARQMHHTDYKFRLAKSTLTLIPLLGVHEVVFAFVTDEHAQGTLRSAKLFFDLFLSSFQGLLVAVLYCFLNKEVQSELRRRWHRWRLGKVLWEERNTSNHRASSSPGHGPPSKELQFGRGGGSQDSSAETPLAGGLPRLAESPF
Chain of Human GLP-1 receptors (P43220 24-463): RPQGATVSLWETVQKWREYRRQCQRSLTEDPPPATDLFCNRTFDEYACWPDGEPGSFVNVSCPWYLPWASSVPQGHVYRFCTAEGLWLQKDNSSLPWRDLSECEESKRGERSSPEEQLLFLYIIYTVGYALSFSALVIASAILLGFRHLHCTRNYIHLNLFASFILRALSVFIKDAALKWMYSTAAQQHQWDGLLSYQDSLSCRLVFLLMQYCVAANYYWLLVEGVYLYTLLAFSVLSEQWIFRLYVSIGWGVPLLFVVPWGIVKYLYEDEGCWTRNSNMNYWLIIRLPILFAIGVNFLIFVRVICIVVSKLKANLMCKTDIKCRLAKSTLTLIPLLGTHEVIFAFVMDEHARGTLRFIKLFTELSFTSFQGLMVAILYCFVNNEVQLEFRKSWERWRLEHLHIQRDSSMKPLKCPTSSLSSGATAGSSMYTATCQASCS

Row | EC50 (Human glucagon receptors) [pM] | EC50 (Human GLP-1 receptors) [pM] | Compound | body weight loss from baseline [1] [%]
1 | 100 to 1000 | 100 to 1000 | CSCC[C@H](NC(=O)[C@H](CC(C)C)NC(=O)[C@H](Cc1c[nH]c2ccccc12)NC(=O)[C@H](CCC(N)=O)NC(=O)[C@@H](NC(=O)[C@H](Cc1ccccc1)NC(=O)[C@H](CC(=O)O)NC(=O)[C@H](CCC(N)=O)NC(=O)[C@H](C)NC(=O)[C@H](CCCNC(=N)N)NC(=O)[C@H](CCCNC(=N)N)NC(=O)C(C)(C)NC(=O)[C@H](CC(=O)O)NC(=O)[C@H](CC(C)C)NC(=O)[C@H](Cc1ccc(O)cc1)NC(=O)[C@H](CCCCN)NC(=O)[C@H](CO)NC(=O)[C@H](CCCCNC(=O)COCCOCCNC(=O)COCCOCCNC(=O)CC[C@H](NC(=O)CCCCCCCCCCCCCCC(=O)NCC(=O)O)C(=O)O)NC(=O)[C@H](CC(=O)O)NC(=O)[C@H](CO)NC(=O)[C@@H](NC(=O)[C@H](Cc1ccccc1)NC(=O)[C@@H](NC(=O)CNC(=O)[C@H](CCC(N)=O)NC(=O)C(C)(C)NC(=O)[C@@H](N)Cc1c[nH]cn1)[C@@H](C)O)[C@@H](C)O)C(C)C)C(=O)N[C@@H](CC(N)=O)C(=O)N[C@H](C(=O)N[C@@H](CCCCN)C(=O)O)[C@@H](C)O [Compound 45] | –
2 | 100 to 1000 | 100 to 1000 | CSCC[C@H](NC(=O)[C@H](CC(C)C)NC(=O)[C@H](Cc1c[nH]c2ccccc12)NC(=O)[C@H](CCC(N)=O)NC(=O)[C@@H](NC(=O)[C@H](Cc1ccccc1)NC(=O)[C@H](CC(=O)O)NC(=O)[C@H](CCC(N)=O)NC(=O)[C@H](C)NC(=O)[C@H](CCCNC(=N)N)NC(=O)[C@H](CCCNC(=N)N)NC(=O)C(C)(C)NC(=O)[C@H](CC(=O)O)NC(=O)[C@H](CC(C)C)NC(=O)[C@H](Cc1ccc(O)cc1)NC(=O)[C@H](CCCCN)NC(=O)[C@H](CO)NC(=O)[C@H](CCCCNC(=O)COCCOCCNC(=O)COCCOCCNC(=O)CC[C@H](NC(=O)CCCCCCCCCCCCCCC(=O)N[C@H](C(=O)O)C(C)C)C(=O)O)NC(=O)[C@H](CC(=O)O)NC(=O)[C@H](CO)NC(=O)[C@@H](NC(=O)[C@H](Cc1ccccc1)NC(=O)[C@@H](NC(=O)CNC(=O)[C@H](CCC(N)=O)NC(=O)C(C)(C)NC(=O)[C@@H](N)Cc1c[nH]cn1)[C@@H](C)O)[C@@H](C)O)C(C)C)C(=O)N[C@@H](CC(N)=O)C(=O)N[C@H](C(=O)N[C@@H](CCCCN)C(=O)O)[C@@H](C)O [Compound 46] | –
3 | 10 to 100 | < 10 | CSCC[C@H](NC(=O)[C@H](CC(C)C)NC(=O)[C@H](Cc1c[nH]c2ccccc12)NC(=O)[C@H](CCC(N)=O)NC(=O)[C@@H](NC(=O)[C@H](Cc1ccccc1)NC(=O)[C@H](CCC(=O)O)NC(=O)[C@@H]1CCCCNC(=O)CC[C@H](NC(=O)[C@H](CC(=O)O)NC(=O)[C@H](CC(C)C)NC(=O)[C@H](Cc2ccc(O)cc2)NC(=O)[C@H](CCCCN)NC(=O)[C@H](CO)NC(=O)[C@H](Cc2ccc(O)cc2)NC(=O)[C@H](CC(=O)O)NC(=O)[C@H](CO)NC(=O)[C@@H](NC(=O)[C@H](Cc2ccccc2)NC(=O)[C@@H](NC(=O)CNC(=O)[C@H](CCC(N)=O)NC(=O)C(C)(C)NC(=O)[C@@H](N)Cc2c[nH]cn2)[C@@H](C)O)[C@@H](C)O)C(=O)N[C@@H](CCCCN)C(=O)N[C@@H](CCCNC(=N)N)C(=O)N[C@@H](C)C(=O)N1)C(C)C)C(=O)N[C@@H](CC(N)=O)C(=O)N[C@H](C(=O)N[C@@H](CCCCN)C(=O)N[C@@H](CS)C(=O)O)[C@@H](C)O [Compound 47, reference compound] | –
4 | 10 to 100 | < 10 | CCCCCCCCCCCCCCCC(=O)N[C@@H](CCC(=O)NCCCC[C@H](NC(=O)[C@H](CC(=O)O)NC(=O)[C@H](CO)NC(=O)[C@@H](NC(=O)[C@H](Cc1ccccc1)NC(=O)[C@@H](NC(=O)CNC(=O)[C@H](CCC(N)=O)NC(=O)[C@H](CO)NC(=O)[C@@H](N)Cc1c[nH]cn1)[C@@H](C)O)[C@@H](C)O)C(=O)N[C@@H](CO)C(=O)N[C@@H](CCC(=O)O)C(=O)N[C@@H](Cc1ccc(O)cc1)C(=O)N[C@@H](CC(C)C)C(=O)N[C@@H](CC(=O)O)C(=O)N[C@@H](CO)C(=O)N[C@@H](CCC(=O)O)C(=O)N[C@@H](CCCNC(=N)N)C(=O)N[C@@H](C)C(=O)N[C@@H](CCCNC(=N)N)C(=O)N[C@@H](CC(=O)O)C(=O)N[C@@H](Cc1ccccc1)C(=O)N[C@H](C(=O)N[C@@H](C)C(=O)N[C@@H](Cc1c[nH]c2ccccc12)C(=O)N[C@@H](CC(C)C)C(=O)N[C@@H](CCC(=O)O)C(=O)N[C@@H](C)C(=O)NCC(=O)NCC(=O)O)C(C)C)C(=O)O [MEDI0382, reference compound] | 8.0
